Measured values as given in ChEMBL document CHEMBL1133266, “Effects of 2-(substituted-sulfanyl)-3,5-dihydro-imidazole-4-one and 2-(substituted-sulfanyl)-1H-imidazole-4,5-dione derivatives on serum HDL-cholesterol” (2000).

Experiments:
Type in all cases: functional
Rattus norvegicus [1] = assay: Increase of high density lipoprotein cholesterol (HDL-C) in cholesterol fed male rats after treatment for 8 days at a dose of 100 mg/kg/day; Average % HDL-C change in 6 animals
Rattus norvegicus [2] = assay: Compound was evaluated for increase of high density lipoprotein cholesterol (HDL-C) in cholesterol fed male rats after treatment for 8 days at a dose of 80 mg/kg/day; Average % HDL-C change in 6 animals
Rattus norvegicus [3] = assay: Compound was evaluated in vivo for the increase of very low density lipoprotein cholesterol (VLDL-C) in cholesterol fed male rats

Compound | Change (Rattus norvegicus [1]) | Change (Rattus norvegicus [2]) | Increase (Rattus norvegicus [3])
CCSC1=NCC(=O)N1c1cc(F)ccc1C | 32% |  | 
CCSC1=NCC(=O)N1c1ccc(Cl)cc1C | 39% |  | 
CCSC1=NCC(=O)N1c1c(C)cccc1C | 75% |  | 
CCSC1=NCC(=O)N1c1ccc(F)cc1 |  | 140% | 
CCSC1=NC(=O)C(=O)N1c1ccccc1C | 48% |  | 
CCSC1=NCC(=O)N1c1ccccc1Cl | 74% |  | 
CCSC1=NCC(=O)N1c1ccc(C)c(Cl)c1 | 45% |  | 
CCSC1=NC(C)C(=O)N1c1cc(Cl)ccc1C (stereo not drawn) | 211% |  | 
Cc1ccc(Cl)cc1N1C(=O)CN=C1SCc1ccccc1 | 102% |  | 
CCSC1=NCC(=O)N1c1cc(Cl)ccc1C | 153% |  | 
CCSC1=NCC(=O)N1c1cc(Cl)ccc1OC | 66% |  | 
CCSC1=NC(=O)C(=O)N1c1cc(Cl)ccc1C | 85% |  | 
CCSC1=NCC(=O)N1c1c(Cl)cccc1Cl | 169% |  | 
CCSC1=NCC(=O)N1c1c(C)cccc1Cl | 71% |  | 
CCSC1=NCC(=O)N1c1cccc(Cl)c1C | 26% |  | 
CCSC1=NCC(=O)N1c1ccccc1C | 139% |  | 78%
CCSC1=NCC(=O)N1c1ccccc1 | 89% |  | 
